From patent publication US11564923B2, “Compounds and pharmaceutical compositions thereof for the treatment of inflammatory disorders” (Galapagos NV, priority 2017, dated 2023)
Structures can show the parent of a compound that is named as a salt.

Tests used:
[1] = biological target: T1, Recombinant human TYK2 catalytic domain (amino acids 871-1187) (Homo sapiens, UniProt P29597); assay: TYK2 radioactive assay polyGT substrate; assay type: biochemical; further: 0.1 µM ATP
T1 construct: catalytic domain (amino acids 871-1187)
T1 sequence (P29597 871-1187): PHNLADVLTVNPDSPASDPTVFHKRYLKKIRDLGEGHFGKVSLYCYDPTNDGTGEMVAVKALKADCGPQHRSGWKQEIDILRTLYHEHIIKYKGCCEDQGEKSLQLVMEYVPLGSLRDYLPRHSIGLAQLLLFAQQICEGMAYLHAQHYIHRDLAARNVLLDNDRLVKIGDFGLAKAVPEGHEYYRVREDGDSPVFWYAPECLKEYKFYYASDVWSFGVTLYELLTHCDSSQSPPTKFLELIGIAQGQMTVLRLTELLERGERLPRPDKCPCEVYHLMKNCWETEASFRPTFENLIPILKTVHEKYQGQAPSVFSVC
Method: After 120 min at 30° C., reactions were stopped by adding 25 μL/well of 150 mM phosphoric acid. […] Plates were washed 6 times with 300 μL per well of a 75 mM phosphoric acid solution and the bottom of the plates is sealed. […] Kinase activity is calculated by subtracting counts per min (cpm) obtained in the presence of a positive control inhibitor (10 μM staurosporine) from cpm obtained in the presence of vehicle. The ability of a test compound to inhibit this activity (or percentage inhibition) is determined as: […]
cpm test compound=cpm determined for sample with test compound present cpm control=cpm determined for sample with positive control inhibitor cpm vehicle=cpm determined in the presence of vehicle
Dose dilution series were prepared for the compounds enabling the testing of dose-response effects in the TYK2 assay and the calculation of the IC50 for each compound. Each compound is routinely tested at concentration of 20 μM followed by a 1/5 serial dilution, 10 points in a final concentration of 1% DMSO.

[2] = test system: IFNα activation of STAT1 in PBMC; assay: IFNα activation of STAT1 in PBMC; assay type: cell-based; conditions: Homo sapiens; IFNα activation of STAT1 in PBMC; average IC50; read-out: IFNα signaling inhibitory potency IC50
Method: After these 2 wash steps the cell pellet is dissolved in ammonium chloride buffer (1.5 M NH4Cl, 100 mM NaHCO3 and 10 mM Na2.EDTA) for lysis of the red blood cells.
PBMC are treated with test compound for 30 min at 37° C. 5% CO2. […] After 30 min of test compound/vehicle pre-treatment, PBMC are stimulated for 30 min at 37° C. 5% CO2 with recombinant human IFNα (PeproTech, catalog number 300-02A) at a final concentration of 5 ng/mL by addition of 20 μL (10× concentrated) cytokine trigger to obtain a final volume of 200 μL per well.
After 30 min of cytokine stimulation, 200 μL of cell suspension is transferred to a 96-well V-bottom plate, centrifugated for 5 min at 1000 rpm to pellet cells, followed by removal of supernatant.
(§1) The percentage inhibition is calculated as: […]
RCLU(vehicle control): Relative Chemiluminescent signal determined in presence of vehicle and trigger
RCLU(test compound): Relative Chemiluminescent signal determined in presence of test compounds and trigger
RCLU(positive control): Relative Chemiluminescent signal determined in presence of positive control and trigger
PIN values are plotted for compounds tested in dose-response and average IC50 values are derived using GraphiPad Prism Software applying non-linear regression (sigmoidal) curve fitting.

[3] = test system: IL-12 activation of STAT4 in NK-92 cells; assay: IL-12 activation of STAT4 in NK-92 cells using AphaLISA SureFire technology; assay type: cell-based; conditions: Homo sapiens, NK92; IL-12 activation of STAT4 in NK-92 cells, AlphaLISA SureFire; average IC50; read-out: IL12 pSTAT4 IC50
Method: IL-2 is added freshly to the medium with each medium refreshment step. Cells are cultured in a humidified incubator at 37° C. 5% CO2.
A subcultured fraction of NK-92 cells is washed once in culture medium without rhIL-2 the day before the experiment and incubated overnight in a culture flask.
5% CO2. […] NK-92 cells are triggered with rhIL-12 for 30 min at 37° C. 5% CO2.
After 30 min of cytokine stimulation the cells are lysed by addition of 15 μL 5× lysis buffer (supplemented with the AlphaLISA kit). After 10 minutes, plates are frozen at −80° C. overnight and the next day the levels of phospho-STAT4 are quantified using the AlphaLISA SureFire ULTRA p-STAT4 (Tyr693) (Perkin Elmer, Catalogue number ALSU-PST4-A10K) according to the manufacturers instructions. AlphaLISA signal (relative light units) is measured using an Envision (Perkin Elmer).
as §1
RLU(trigger/veh): Relative lumescent signal determined in presence of vehicle and trigger
RLU(test compound): Relative luminescent signal determined in presence of test compounds and trigger
PIN values are plotted for compounds tested in dose-response and IC50 values are derived using GraphPad Prism Software applying non-linear regression (sigmoidal) curve fitting. The data are expressed as the average IC50 from different experiments.

| SMILES | IC50 [1] [nM] | IC50 [2] [nM] | IC50 [3] [nM] |
| --- | --- | --- | --- |
| Cc1cc(C#N)ncc1Oc1cc(Nc2ccc(C(=O)N3C[C@@H](C)O[C@H](C)C3)cn2)c2ncn(C)c2n1 (racemic) [Compound 149, 4-methyl-5-[3-methyl-7-[[5-[rac-(2R,6R)-2,6-dimethylmorpholine-4-carbonyl]pyridin-2-yl]amino]imidazo[4,5-b]pyridin-5-yl]oxypyridine-2-carbonitrile] | 3.66 | 218 | 347 |
| CCc1cc(C#N)ncc1Oc1cc(Nc2ccc(C(=O)N3CCOCC3)cn2)c2ncn(C)c2n1 [Compound 7, 4-Ethyl-5-{3-methyl-7-[5-(morpholine-4-carbonyl)-pyridin-2-ylamino]-3H-imidazo[4,5-b]pyridin-5-yloxy}-pyridine-2-carbonitrile] | 0.59 | 49 | 133 |
| Cc1cc(C#N)ncc1Oc1cc(Nc2ccc(N3CC(CN(C)C)C3)nn2)c2ncn(C)c2n1 [Compound 40, 5-{7-[6-(3-Dimethylaminomethyl-azetidin-1-yl)-pyridazin-3-ylamino]-3-methyl-3H-imidazo[4,5-b]pyridin-5-yloxy}-4-methyl-pyridine-2-carbonitrile] | 9.69 | 115 | 3530 |
| Cc1cc(C#N)ncc1Oc1cc(Nc2ccc(N3C[C@@H](C)O[C@@H](C)C3)nn2)c2ncn(C)c2n1 [Compound 43, (±)-5-{7-[6-((2R,6S)-2,6-Dimethyl-morpholin-4-yl)-pyridazin-3-ylamino]-3-methyl-3H-imidazo[4,5-b]pyridin-5-yloxy}-4-methyl-pyridine-2-carbonitrile] | 1.58 | 70 | 49 |
| Cc1cc(C#N)ncc1Oc1cc(Nc2ccc(N3CCO[C@@H](C)C3)nn2)c2ncn(C)c2n1 [Compound 44, 4-Methyl-5-{3-methyl-7-[6-((S)-2-methyl-morpholin-4-yl)-pyridazin-3-ylamino]-3H-imidazo[4,5-b]pyridin-5-yloxy}-pyridine-2-carbonitrile] | 1.97 | 79 | 50 |
| Cc1cc(C#N)ncc1Oc1cc(Nc2ccc(C(=O)N3CCN(C(C)C)CC3)cn2)c2ncn(C)c2n1 [Compound 46, 4-methyl-5-[3-methyl-7-[[5-(4-propan-2-ylpiperazine-1-carbonyl)pyridin-2-yl]amino]imidazo[4,5-b]pyridin-5-yl]oxypyridine-2-carbonitrile] | 1.47 | 76 | 210 |
| Cc1cc(C#N)ncc1Oc1cc(Nc2ccc(C(=O)N3CCN(C4CCC4)CC3)cn2)c2ncn(C)c2n1 [Compound 47, 5-[7-[[5-(4-cyclobutylpiperazine-1-carbonyl)pyridin-2-yl]amino]-3-methylimidazo[4,5-b]pyridin-5-yl]oxy-4-methylpyridine-2-carbonitrile] | 2.02 | 52 | 84 |
| Cc1cc(C#N)ncc1Oc1cc(Nc2ccc(N3CCN(C)CC3)cn2)c2ncn(C)c2n1 [Compound 50, 4-methyl-5-[3-methyl-7-[[5-(4-methylpiperazin-1-yl)pyridin-2-yl]amino]imidazo[4,5-b]pyridin-5-yl]oxypyridine-2-carbonitrile] | 5.54 | 95 | 248 |
| Cc1cc(C#N)ncc1Oc1cc(Nc2ccc(CN3CCOCC3)cn2)c2ncn(C)c2n1 [Compound 82, 4-methyl-5-[3-methyl-7-[[5-(morpholin-4-ylmethyl)pyridin-2-yl]amino]imidazo[4,5-b]pyridin-5-yl]oxypyridine-2-carbonitrile formate salt] | 8.15 | 126 | 195 |
| Cc1cc(C#N)ncc1Oc1cc(Nc2ccc(OC3CN(C)C3)nn2)c2ncn(C)c2n1 [Compound 90, 4-methyl-5-[3-methyl-7-[[6-(1-methylazetidin-3-yl)oxypyridazin-3-yl]amino]imidazo[4,5-b]pyridin-5-yl]oxypyridine-2-carbonitrile] | 12.4 | 288 | 1520 |
| Cc1cc(C#N)ncc1Oc1cc(Nc2ccc(C(=O)N3CC(O)C3)cn2)c2ncn(C)c2n1 [Compound 96, 5-[7-[[5-(3-hydroxyazetidine-1-cabonyl)-2-pyridyl]amino]-3-methyl-imidazo[4,5-b]pyridin-5-yl]oxy-4-methyl-pyridine-2-carbonitrile] | 2.51 | 73 | 358 |
| COC1CN(C(=O)c2ccc(Nc3cc(Oc4cnc(C#N)cc4C)nc4c3ncn4C)nc2)C1 [Compound 103, 5-[7-[[5-(3-methoxyazetidine-1-carbonyl)-2-pyridyl]amino]-3-methyl-imidazo[4,5-b]pyridin-5-yl]oxy-4-methyl-pyridine-2-carbonitrile] | 2.73 | 68 | 63.5 |
| COCC1CN(C(=O)c2ccc(Nc3cc(Oc4cnc(C#N)cc4C)nc4c3ncn4C)nc2)C1 [Compound 104, 5-[7-[[5-[3-(methoxymethyl)azetidine-1-carbonyl]-2-pyridyl]amino]-3-methyl-imidazo[4,5-b]pyridin-5-yl]oxy-4-methyl-pyridine-2-carbontrile] | 2.88 | 65 | 108 |
| Cc1cc(C#N)ncc1Oc1cc(Nc2ccc(C(=O)N3CC[C@@H](N(C)C)C3)cn2)c2ncn(C)c2n1 [Compound 107, 5-[7-[[5-[(3R)-3-(dimethylamino)pyrrolidine-1-carbonyl]pyridin-2-yl]amino]-3-methylimidazo[4,5-b]pyridin-5-yl]oxy-4-methylpyridine-2-carbonitrile] | 5.44 | 110 | 622 |
| Cc1cc(C#N)ncc1Oc1cc(Nc2ccc(C(=O)N3CCOCC3)nn2)c2ncn(C)c2n1 [Compound 108, 4-methyl-5-[3-methyl-7-[[6-(morpholine-4-carbonyl)pyridazin-3-yl]amino]imidazo[4,5-b]pyridin-5-yl]oxypyridine-2-carbonitrile] | 2.63 | 52 | 94 |
| Cc1cc(C#N)ncc1Oc1cc(Nc2ccc(C(=O)N3CC(O)(C4CC4)C3)cn2)c2ncn(C)c2n1 [Compound 113, 5-[7-[[5-(3-cyclopropyl-3-hydroxy-azetidine-1-carbonyl)-2-pyridyl]amino]-3-methyl-imidazo[4,5-b]pyridin-5-yl]oxy-4-methyl-pyridine-2-carbonitrile] | 2.05 |  | 190 |
| Cc1cc(C#N)ncc1Oc1cc(Nc2ccc(C(=O)N3CC(CO)C3)cn2)c2ncn(C)c2n1 [Compound 118, 5-[7-[[5-[3-(hydroxymethyl)azetidine-1-carbonyl]-2-pyridyl]amino]-3-methyl-imidazo[4,5-b]pyridin-5-yl]oxy-4-methyl-pyridine-2-carbonitrile] | 2.81 | 110 | 299 |
| Cc1cc(C#N)ncc1Oc1cc(Nc2ccc(C(=O)N3CCOC[C@H]3C)cn2)c2ncn(C)c2n1 [Compound 146, 4-methyl-5-[3-methyl-7-[[5-[(3R)-3-methylmorpholine-4-carbonyl]pyridin-2-yl]amino]imidazo[4,5-b]pyridin-5-yl]oxypyridine-2-carbonitrile] | 1.15 | 122 |  |
